From patent US20220168322A1, “NOVEL STAT3 INHIBITORS IDENTIFIED BY STRUCTURE-BASED VIRTUAL SCREENING INCORPORATING SH2 DOMAIN FLEXIBILITY” (Board of Regents, The University of Texas System, priority 2018, published 2022)

How the values were obtained:
[1] = tested on: G-CSF-stimulated pSTAT3; experiment: Inhibition of G-CSF-stimulated pSTAT3 in Kasumi-1 cells (Luminex, pSTAT3/GAPDH); assay type: cell-based; conditions: Kasumi1 cells, single concentration of 10 μM, G-CSF 100 ng/ml; pSTAT3/GAPDH relative to DMSO treated cells
Procedure: […] Total protein was assayed for pSTAT3 and GAPDH levels by Luminex. GAPDH-normalized pSTAT3 values were divided by the same for untreated cells and expressed as percentage. These values were plotted as a function of Log [M] compound, and IC50 calculated using GraphPad. Data from representative experiments from at least two repeats is shown.
Luminex bead-based assay. Luminex bead-based assays were used to determine levels of pSTAT3, pSTAT1, pSTAT5, and GAPDH, as described (Bharadwaj et al., 2015). […]

[2] = molecular target: T1, STAT3 (aa 127-722) (Homo sapiens, UniProt P40763); experiment: SPR assay of STAT3 binding to immobilized EGFR pY1068 phosphododecapeptide; conditions: for % of max binding at 10 μm: pEGFRp-STAT3 binding (SPR) at pH 8, compound 10 μm; for % of max binding at 100 μm: pEGFRp-STAT3 binding (SPR) at pH 8, compound 100 μm
T1 construct: STAT3 (aa 127-722) at a concentration of 200 nM
Procedure: Surface plasmon resonance (SPR) assay of STAT3 binding pY-peptide. STAT3 (aa 127-722) at a concentration of 200 nM in 20 mM Tris buffer (pH 8) was pre-incubated without or with compounds prior to injection onto an SA chip immobilized with phosphorylated and control non-phosphorylated biotinylated EGFR derived dodecapeptides based on sequence surrounding Y1068 (Shao et al., 2004), on a Biacore 3000 biosensor (Biacore inc., Piscataway N.J.) and analyzed as described (Bharadwaj et al., 2016).
Surface Plasmon Resonance (SPR) was performed on the 24 compounds to determine their ability to block binding of purified STAT3 to an immobilized phosphododecapeptide based on EGFR Y1068 (EGFR pY-peptide), as described (Xu et al., 2009).

T1 sequence (P40763 127-722 isoform P40763-3 limits assumed, species assumed): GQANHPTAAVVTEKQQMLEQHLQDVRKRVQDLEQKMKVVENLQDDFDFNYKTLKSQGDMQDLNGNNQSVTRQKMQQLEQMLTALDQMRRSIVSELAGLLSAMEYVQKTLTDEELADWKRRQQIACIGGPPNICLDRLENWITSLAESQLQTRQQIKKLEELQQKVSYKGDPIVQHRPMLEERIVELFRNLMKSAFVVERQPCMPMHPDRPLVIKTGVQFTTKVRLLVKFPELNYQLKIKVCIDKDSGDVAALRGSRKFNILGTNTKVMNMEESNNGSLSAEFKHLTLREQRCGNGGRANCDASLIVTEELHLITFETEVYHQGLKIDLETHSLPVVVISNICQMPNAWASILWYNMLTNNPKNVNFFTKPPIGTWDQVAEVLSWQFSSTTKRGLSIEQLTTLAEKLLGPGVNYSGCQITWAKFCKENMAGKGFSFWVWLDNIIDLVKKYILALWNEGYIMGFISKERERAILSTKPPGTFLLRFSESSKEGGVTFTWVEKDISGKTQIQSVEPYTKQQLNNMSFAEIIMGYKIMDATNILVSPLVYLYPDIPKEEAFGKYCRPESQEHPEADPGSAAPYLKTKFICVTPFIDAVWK

Row | % of max binding at 10 μm [2] [%] | % of max binding at 100 μm [2] [%] | Compound | % of Control Stimulated pSTAT3 [1] [%]
1 | – | – | COc1ccc(C(=O)COC(=O)c2ccc(NC(=O)CCCC(=O)O)cc2)cc1 [SPEC-77] | 121
2 | – | – | O=C(O)c1ccc(-c2ccc(CNCCc3c[nH]c4ccccc34)o2)cc1 [SPEC-42] | 118
3 | – | – | COc1ccc(/C=N/NC(=O)COc2ccc(Cl)cc2)cc1COc1cccc2cccnc12 [SPEC-69] | 112
4 | – | – | CCCC(NC(=O)c1ccccc1)C(=O)OCC(=O)Nc1nc2ccc(OC)cc2s1 (centres unmarked) [AG-690/15437974] | 82
5 | 76.0 | 10.4 | CC1(C)CC(=O)c2sc(NC(=O)CSc3nnc(SCC(=O)Nc4nc5c(s4)C(=O)CC(C)(C)C5)s3)nc2C1 [SPEC-103] | 46
6 | – | – | O=C(CCN1C(=O)S/C(=C\c2ccc(Cl)cc2)C1=O)Nc1ccc(S(=O)(=O)Nc2nccs2)cc1 [SPEC-97] | 55
7 | 70.8 | 15.4 | COC(=O)c1ccc(N2C(=O)CC(SC(=NCCc3ccc(S(N)(=O)=O)cc3)Nc3ccccc3)C2=O)cc1 (centres unmarked) [SPEC-100] | 42
8 | – | – | CCOc1ccc(NC(=O)CN2C(=O)S/C(=C/c3ccc(OCC(N)=O)c(OCC)c3)C2=O)cc1 [SPEC-40] | 75
9 | – | – | CC(=O)c1ccc(NC(=O)CSc2nnc(COc3ccc([N+](=O)[O-])cc3)n2C)cc1 [SPEC-92] | 51
10 | – | – | O=C(O)c1ccc(-c2ccc(/C=C3/NC(=O)N(c4ccc(Cl)cc4)C3=O)o2)cc1 [SPEC-80] | 89
11 | – | – | CC(=O)c1ccc(NC(=O)CSc2nn3c(SCC(=O)Nc4ccc(C(C)=O)cc4)nnc3s2)cc1 [SPEC-104] | 91
12 | – | – | CCC(Sc1nnc(NC(=O)CCc2ccccc2)s1)C(=O)Nc1ccc(C(C)=O)cc1 (centres unmarked) [SPEC-45] | 113
13 | – | – | CC1=CC(=O)OC2C=C(OCCCCCCOC3=CC4OC(=O)C=C(C)C4C=C3)C=CC12 (centres unmarked) [SPEC-17] | 106
14 | – | – | COC(=O)CSc1nc2ccc(NC(=O)c3ccccc3C(=O)N3CCN(c4ccccc4)CC3)cc2s1 [SPEC-27] | 61
15 | – | – | CC(=O)N1CCc2nc(SCC(=O)Nc3cccc(C#N)c3)c(C#N)c(C(F)(F)F)c2C1 [SPEC-62] | 108
16 | 57.5 | 43.5 | CC(C)c1ccc(NC(=O)C2C3C=CC(CC3)C2C(=O)O)cc1 (centres unmarked) [SPEC-65] | 35
17 | – | – | CC(=O)c1ccc(NC(=O)c2ccc(CSc3nnc(NC(=O)CCc4ccccc4)s3)cc2)cc1 [SPEC-3] | 77
18 | – | – | N#Cc1ccccc1Sc1ccccc1C(=O)Nc1ccc(OCC(=O)N2CCOCC2)cc1 [SPEC-14] | 91
19 | – | – | COc1ccccc1CCNCc1ccc(-c2cccc(C(=O)O)c2)o1 [SPEC-44] | 120
20 | – | – | O=C(CCCCC(=O)Nc1ccc(S(=O)(=O)Nc2ccc(F)cc2)cc1)Nc1ccc(S(=O)(=O)Nc2ccc(F)cc2)cc1 [SPEC-53] | 71
21 | – | – | CC(=O)c1ccc(NC(=O)NC2CCCCC2)cc1 [SPEC-63] | 118

Row | % of max binding at 10 μm [2] [%] | % of max binding at 100 μm [2] [%] | Compound | % of Control Stimulated pSTAT3 [1] [%]
22 | – | – | Cc1c(Cl)c(=O)oc2c(C)c(OCc3ccc([N+](=O)[O-])cc3)ccc12 [SPEC-10] | 87
23 | – | – | O=C(CCCCC(=O)NNC(=O)COc1ccc2ccccc2c1)NNC(=O)COc1ccc2ccccc2c1 [SPEC-49] | 105
24 | – | – | O=C(NNC(=O)[C@@H]1CCCC[C@@H]1C(=O)O)c1ccc(NC(=O)C2CC2)cc1 [SPEC-47] | 104
25 | – | – | C=CCN1C(=O)NC(=O)/C(=C/c2ccc(OCC(=O)Nc3ccc(C)cc3)cc2)C1=O [SPEC-35] | 69
26 | – | – | CCN1C(=O)/C(=C/c2ccc(OCC(=O)O)c(OC)c2)SC1=S [SPEC-59] | 78
27 | – | – | CC1CCN(S(=O)(=O)c2ccc(NC(=O)CCCC(=O)Nc3ccc(S(=O)(=O)N4CCC(C)CC4)cc3)cc2)CC1 [SPEC-52] | 120
28 | – | – | COc1cccc(N=C2SC(C(=O)Nc3ccc(C(=O)O)cc3)CC(=O)N2C)c1 (centres unmarked) [SPEC-95] | 104
29 | – | – | CC(=O)c1ccc(NC(=O)CSc2nnc(CNc3ccc(C)cc3C)n2CC2CCCO2)cc1 (centres unmarked) [SPEC-89] | 68
30 | – | – | CCN(CC)S(=O)(=O)c1ccc(NC(=O)CCCC(=O)Nc2ccc(S(=O)(=O)N(CC)CC)cc2)cc1 [SPEC-51] | 87
31 | 76.7 | 46.1 | CCCCOc1ccc(/C=C2\SC(=O)NC2=O)cc1OCC [SPEC-20] | 27
32 | – | – | CCN1C(=O)S/C(=C/c2ccc(OCc3cccc(C(=O)O)c3)c(Br)c2)C1=O [SPEC-83] | 61
33 | – | – | CC1=NN(c2ccc(C)cc2)C(=O)/C1=C\c1ccc(-c2ccc(C(=O)O)cc2)o1 [SPEC-46] | 71
34 | – | – | Cc1ccccc1NC(=O)CN1C(=O)S/C(=C/c2ccc(-c3ccc(Cl)c(C(=O)O)c3)o2)C1=O [SPEC-24] | 105
35 | – | – | CCOC(=O)COc1ccc(-c2nc3ccccc3s2)cc1OC [SPEC-33] | 89
36 | – | – | CCN1C(=O)N/C(=C/c2ccc(OCc3cccc(C(=O)O)c3)c(Cl)c2)C1=O [SPEC-79] | 79
37 | – | – | COc1cc(C=C2C(=O)OC(C)(c3ccccc3)OC2=O)ccc1OCc1cccc(C(=O)O)c1 (centres unmarked) [SPEC-60] | 98
38 | – | – | NC(=O)COc1ccc(/C=N/NC(=O)CCCOc2ccc(Cl)cc2Cl)cc1 [SPEC-12] | 75
39 | – | – | O=C(CN1C(=O)S/C(=C\c2ccc(-c3cc(C(=O)O)ccc3Cl)o2)C1=O)Nc1ccccc1 [SPEC-23] | 114
40 | – | – | O=C(CCCCC(=O)Nc1ccc(S(=O)(=O)N2CCCC2)cc1)Nc1ccc(S(=O)(=O)N2CCCC2)cc1 [SPEC-55] | 114
41 | 58.5 | 31.5 | O=C(Nc1ccc(Oc2ccccc2Cl)cc1)C1C2CC3C(OC(=O)C31)C2Br (centres unmarked) [SPEC-73] | 38
42 | – | – | CC(=O)NCCc1ccc(S(=O)(=O)Nc2ccc(C(=O)NCc3ccccc3)cc2)cc1 [SPEC-15] | 98

Row | % of max binding at 10 μm [2] [%] | % of max binding at 100 μm [2] [%] | Compound | % of Control Stimulated pSTAT3 [1] [%]
43 | – | – | Cc1c(C)c2ccc(OCC(=O)Nc3cccc([N+](=O)[O-])c3)c(C)c2oc1=O [SPEC-9] | 93
44 | 109.3 | 28.4 | O=C(O)c1ccc(-c2ccc(/C=C3/NC(=O)N(Cc4ccccc4F)C3=O)o2)cc1Cl [SPEC-82] | 27
45 | – | – | O=C(O)COc1ccc(/C=N/NC(=O)C2CCCN2S(=O)(=O)c2ccc(Cl)cc2)cc1 (centres unmarked) [SPEC-13] | 99
46 | – | – | CC(=O)c1ccc(NC(=O)CC2S/C(=N\N=C3CCCCCC3)NC2=O)cc1 (centres unmarked) [SPEC-99] | 67
47 | – | – | O=C(COc1ccc(/C=C2/SC(=O)N(CC(=O)N3CCN(c4ccccc4)CC3)C2=O)cc1Br)Nc1ccccc1 [SPEC-11] | 86
48 | – | – | COc1cc(C=Nc2cccc(Cl)c2)ccc1OCC(N)=O [SPEC-41] | 74
49 | 132.2 | 59.5 | CCn1c(CNc2ccc(Cl)cc2)nnc1SC(C)C(=O)Nc1ccc(C(C)=O)cc1 (centres unmarked) [SPEC-90] | 4
50 | 73.7 | 21.4 | CC(=O)c1ccc(NC(=O)C2C3CC/C=C\CCC32)cc1 (centres unmarked) [SPEC-102] | 38
51 | – | – | COC(=O)CCC(=O)Nc1ccc(Cc2ccc(NC(=O)CCC(=O)OC)cc2)cc1 [SPEC-108] | 98
52 | – | – | O=C(O)c1cccc(-c2ccc(CNCc3ccc4c(c3)OCO4)o2)c1 [SPEC-43] | 96
53 | – | – | COc1cccc(-c2csc(NC(=O)C3CC(=O)N(c4cccc(Cl)c4)C3)n2)c1 (centres unmarked) [SPEC-75] | 55
54 | 97.1 | 82.3 | NC(=O)CCN1CCN(CCOC2Cc3cc(Cl)ccc3Sc3ccccc32)CC1 (centres unmarked) [SPEC-109] | 1
55 | – | – | CN1CCS/C1=C/C=C1\SC(=S)N(CC(=O)O)C1=O [SPEC-107] | 107
56 | 64.1 | 51.3 | COc1ccc(CCNC(=O)c2cccc(C(=O)NCCc3ccc(OC)c(OC)c3)c2)cc1OC [SPEC-67] | –
57 | – | – | O=C(COC(=O)C1C2CC3C(OC(=O)C31)C2Br)c1ccc(Cl)cc1Cl (centres unmarked) [SPEC-74] | 82
58 | – | – | O=C(CN1C(=O)S/C(=C/c2ccc(Cl)cc2)C1=O)Nc1ccc(S(=O)(=O)Nc2nccs2)cc1 [SPEC-105] | 86
59 | – | – | CC(=O)c1ccc(NC(=O)C(C)Oc2ccccc2)cc1 (centres unmarked) [SPEC-94] | 97
60 | – | – | COc1ccc(CCNC2CC(=O)N(c3ccc(N4C(=O)CC(NCCc5ccc(OC)cc5)C4=O)cc3)C2=O)cc1 (centres unmarked) [SPEC-31] | 99
61 | – | – | O=C(CSc1nnc(-c2ccccc2)c(-c2ccccc2)n1)Nc1ccc(S(=O)(=O)Nc2nccs2)cc1 [SPEC-30] | 68
